Source: patent publication US8440649B2 (priority 2009, dated 2013)

Assays:
SARS CoV [1] = conditions: Vero E6 cells
SARS CoV [2] = test: in vitro; conditions: African green monkey
in vitro = conditions: African green monkey
SARS CoV [3] = test: microbe, parasite or virus in culture; conditions: Severe acute respiratory syndrome coronavirus, Vero C1008, read-out: Anti-SARS CoV IC50

| Structure (SMILES) | reduction of levels of CPEs caused by SARS CoV infection (in words) (SARS CoV [1]) | cytotoxicity per se (in words) (Vero E6 cells) | selectivity ratio (SARS CoV [2]) | CC50 (in vitro) | IC50 (SARS CoV [3]) | melting point |
| --- | --- | --- | --- | --- | --- | --- |
| COc1cc2c3c(c4cc(OC)c(OC)cc4c2cc1OC)CN1CCCC1C3 (stereo not drawn) [Compound 1] | effectively reduced | low cytotoxicity | 23.3 | 420 nM | 18 nM | – |
| COc1cc2c3c(c4cc(OC)c(OC)cc4c2cc1OC)CN1CCCCC1C3 (stereo not drawn) [Compound 11] | effectively reduced | low cytotoxicity | – | – | – | – |
| COc1cc2c3c(c4cc(OC)c(OC)cc4c2cc1OC)C(O)C1CCCCN1C3 (stereo not drawn) [Compound 12] | – | – | > 7.1 | > 100 nM | 14 nM | – |
| COc1cc2c3c(c4cc(OC)c(OC)cc4c2cc1OC)C[N+]1([O-])CCCCC1C3 (stereo not drawn) [Compound 18] | – | – | > 56 | – | < 100 nM | – |
| COc1cc2c3cc(OC)c(OC)cc3c3c[n+]4c(cc3c2cc1OC)CCCC4.[Br-] [Compound 19] | effectively reduced | low cytotoxicity | – | – | – | – |
| COc1ccc2c3c(c4cc(OC)c(OC)cc4c2c1)CN1CCCC1C3OC(C)=O (stereo not drawn) [Compound 32] | – | – | – | – | – | 196 to 198 °C |
